Read-outs that look alike come from different tables or passages of the source.
Assays:
gelatinase B = gelatinase B (Homo sapiens, UniProt P14780); assay: biochemical
Method: Pro-gelatinase B was purified from human neutrophils by first separating the neutrophils from human blood by density centrifugation and dextran sedimentation. The separated neutrophils were disrupted by combined treatment with 0.05% Triton X-100® and sonification Cell debris was then removed by high speed centrifugation. […] The gelatinase B was incubated overnight at 37°C with 1mM p-aminophenylmercuric acetate. The inhibitory activity of the present hydroxamine derivatives was determined using the synthetic substrate N-acetyl-Pro-Gln-Gly-Leu-Leu-Gly ethyl ester for this enzyme. The gelatinase was added to a solution of 0.25 mM of substrate in 50mM borate buffer (pH 7.5) containing 1 mM calcium chloride and a known concentration of hydroxylamine derivative. The resulting solution was incubated at 37°C for 16 hours. Enzymic activity was terminated by addition of an equal volume of 2% (w/v) sodium hydrogen carbonate solution in 50% aqueous methanol containing 0.05% (w/v) of picrylsulphonic acid. The solution obtained was incubated at 37°C for a further 1 hour and the reaction was then terminated and stabilized by acidification with 1N hydrochloric acid. The concentration of trinitrophenyl-Leu-Leu-Gly ethyl ester formed was determined by spectrophotometry at 335 nm. The IC50 is that concentration of hydroxylamine derivative which reduces substrate cleavage to 50% of that achieved by the enzyme alone.

Stromelysin [1] = molecular target: T1, Stromelysin (Homo sapiens, UniProt P08254); assay: biochemical
T1 sequence (P08254 100-477): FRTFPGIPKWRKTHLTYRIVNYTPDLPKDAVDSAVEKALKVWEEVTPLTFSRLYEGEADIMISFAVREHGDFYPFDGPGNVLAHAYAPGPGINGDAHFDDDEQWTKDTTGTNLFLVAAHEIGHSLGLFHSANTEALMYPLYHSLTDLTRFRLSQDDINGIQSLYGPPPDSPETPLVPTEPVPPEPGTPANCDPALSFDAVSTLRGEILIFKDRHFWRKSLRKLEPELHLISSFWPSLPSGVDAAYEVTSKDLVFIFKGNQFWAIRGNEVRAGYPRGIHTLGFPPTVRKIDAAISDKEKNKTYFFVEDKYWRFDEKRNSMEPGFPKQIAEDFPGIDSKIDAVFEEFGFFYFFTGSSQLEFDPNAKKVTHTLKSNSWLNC
Method: The latent pro-enzyme (30 µg/ml) was activated by incubation with trypsin (0.5 µg/ml) for 30 minutes at 25°C and then the trypsin was inactivated using a twenty-fold excess of trypsin inhibitor. The inhibitory activity of the hydroxamic acid derivatives was determined using the fluorescent peptide substrate (7-methoxycoumarin-4-yl)acetyl-L-prolyl-L-leucyl-L-alanyl-L-[…]-[3-(2,4-dinitrophenyl)-L-2,3-diaminopropyl]-L-arginyl-L-arginine. The stromelysin (final concentration 35 ng/ml) was added to a solution of substrate ([…]) and varying concentrations of hydroxylamine derivative in 50mM Tris HCl buffer, pH 7.5 containing 200 mM Na Cl, 10mM CaCl2, 0.05% Brij 35 and 5% methanol. This solution was incubated for 16 hours at 37°C. Product formation was determined by spectrofluorometry using an excitation wavelength of 325 nm and an emission wavelength of 395 nm. The IC50 is that concentration of hydroxylamine derivative which reduces the substrate cleavage to 50% of that achieved by the enzyme alone.

Stromelysin [2] = molecular target: T1, Stromelysin; assay: Stromelysin (Test A), 14C-acetylated b-casein substrate digestion; type: biochemical; conditions: read-out: Test A IC50 (mol)
Method: Prostromelysin was purified from human fibroblast culture medium by prostromelysin antibody affinity chromatography [Ganja-Smith Z, Nagase H, Woessner J F Jr., Biochem J. 1989, vol 285 (1), pp 115-119]. The latent pro-enzyme was activated by incubation with trypsin (5 mg/ml) at 25°C for 2 hours and after this time the trypsin was inactivated using a ten-fold excess of soya bean trypsin inhibitor. The inhibitory activity of the aforementioned hydroxamic acid derivatives was determined using ^14C-acetylated b-casein substrate. The stromelysin (5 nM) was added to a solution of substrate (4 mg/ml) in 25 mM Tris HCl buffer, pH 7.5, containing 10 mM CaCl2 and 0.05% Brij®. The solution obtained was incubated at 37°C for 20 hours. Enzyme digestion of the substrate was terminated by the addition of 45% trichloroacetic acid and the precipitated undigested substrate was pelleted by centrifugation at 10000 g for 0.25 hour. The supernatant was aspired and ^14C activity was determined by liquid scintillation spectrometry. The IC50 is that concentration of hydroxamic acid derivative in the enzyme digestion which reduces the substrate cleavage to 50% of that achieved by the enzyme alone.

[3] = gelatinase B from human neutrophils, 0.25 mM substrate, pH 7.5, 37°C, 16 hours, * = IC50 limited by mutual depletion of the enzyme, read-out: Test C IC50 (mol)

Chain of gelatinase B (P14780 94-707): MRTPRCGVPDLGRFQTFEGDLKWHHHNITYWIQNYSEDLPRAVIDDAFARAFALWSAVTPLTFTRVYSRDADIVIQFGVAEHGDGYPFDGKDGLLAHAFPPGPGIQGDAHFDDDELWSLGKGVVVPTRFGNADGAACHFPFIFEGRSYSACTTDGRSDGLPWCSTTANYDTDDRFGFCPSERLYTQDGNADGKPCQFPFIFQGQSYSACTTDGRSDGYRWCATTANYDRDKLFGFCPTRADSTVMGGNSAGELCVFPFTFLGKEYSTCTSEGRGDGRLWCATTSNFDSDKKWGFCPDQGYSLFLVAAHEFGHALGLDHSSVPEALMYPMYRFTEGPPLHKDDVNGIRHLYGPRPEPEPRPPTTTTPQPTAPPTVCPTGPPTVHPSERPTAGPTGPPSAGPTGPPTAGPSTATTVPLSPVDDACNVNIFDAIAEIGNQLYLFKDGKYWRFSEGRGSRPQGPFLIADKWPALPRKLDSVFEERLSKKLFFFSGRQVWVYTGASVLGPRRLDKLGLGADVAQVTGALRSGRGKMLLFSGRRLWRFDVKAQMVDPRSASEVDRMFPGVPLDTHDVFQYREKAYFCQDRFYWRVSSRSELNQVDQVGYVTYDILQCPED

IC50 (Stromelysin [1]; stromelysin 35 ng/ml, fluorescent peptide substrate, pH 7.5, 37°C, 16 hours, * = IC50 limited by mutual depletion of the enzyme, read-out: Test B IC50 (mol)) [nM]	Structure (SMILES)	IC50 (gelatinase B) [nM]	IC50 (Stromelysin [1]) [nM]	IC50 (Stromelysin [2]) [nM]	IC50 (gelatinase B; [3]) [nM]
–	CCCCCCCC(CC(=O)NO)C(=O)N[C@@H](CC(C)C)C(=O)N[C@@H](CC(C)C)C(=O)NCC (single isomer, unassigned) [Compound A, [4-(N-Hydroxyamino)-2(R or S)-heptylsuccinyl]-L-leucyl-L-leucine ethylamide]	320	12.5	33	–
–	CCCCCCCCCC(CC(=O)NO)C(=O)N[C@@H](CC(C)C)C(=O)N[C@@H](CC(C)C)C(=O)NCC (single isomer, unassigned) [Compound B, [4-(N-Hydroxyamino)-2(R or S)-nonylsuccinyl]-L-leucyl-L-leucine ethylamide]	50	9.3	26	–
–	CCCCCCCC(C(=O)N[C@@H](CC(C)C)C(=O)N[C@@H](CC(C)C)C(=O)NCC)[C@H](C)C(=O)NO (single isomer, unassigned) [Compound C, [4-(N-Hydroxyamino)-2(R or S)-heptyl-3(S)-methylsuccinyl]-L-leucyl-L-leucine ethylamide]	–	2.3	11	–
–	CCCCCCC[C@@H](C(=O)N[C@@H](CC(C)C)C(=O)N[C@@H](CC(C)C)C(=O)NCC)C(CN1C(=O)c2ccccc2C1=O)C(=O)NO (single isomer, unassigned) [Compound D, [4-(N-Hydroxyamino)-2(R)-heptyl-3(R or S)-(phthalimidomethyl)succinyl]-L-leucyl-L-leucine ethylamide]	–	0.59	10	–
1.2	CCCCCCC[C@@H](C(=O)N[C@H](C(=O)NC)C(C)(C)C)C(CN1C(=O)c2ccccc2C1=O)C(=O)NO (single isomer, unassigned) [Compound G, [4-(N-Hydroxyamino)-2(R)-heptyl-3(R or S)-(phthalimidomethyl)succinyl]-L-tert-butylglycine methylamide]	–	–	–	0.9
–	CCCCCCC[C@@H](C(=O)N[C@@H](CC(C)C)C(=O)N[C@@H](CC(C)C)C(=O)NCC)C(CCCc1ccccc1)C(=O)NO (single isomer, unassigned) [Compound H, [4-(N-Hydroxyamino) 2(R)-heptyl-3(R or S)-(3-phenylpropyl)succinyl]-L-leucyl-L-leucine ethylamide]	–	0.66	–	–
–	CCCCCCCC(CC(=O)NO)C(=O)N[C@@H](Cc1ccccc1)C(=O)NC (stereo partly drawn) [Compound F, [4-(N-Hydroxyamino)-2(RS)-heptylsuccinyl]-L-phenylalanine methylamide]	–	22	–	3.2

From patent EP0575844B1, “Hydroxamic acid derivatives and pharmaceutical compositions thereof” (F. HOFFMANN-LA ROCHE AG, priority 1992, dated 1993)
